# Data: patent US9889184B2 (priority 2008, dated 2018)
# What was measured:
# [1] = system: Fov hyphae; assay: Detection of reactive oxygen species (DHR123 oxidation); type: cell-based, Fusarium oxysporum f. sp. vasinfectum
# Experimental: Fov hyphae were grown as described herein and incubated with 5 μg/mL dihydrorhodamine 123 (Sigma-Aldrich) for 2 h followed by extensive washing with growth medium. […] Fluorescence was then measured on a fluorimeter with excitation and emission wavelengths of 488 nm and 538 nm respectively or visualized by fluorescence microscopy. The experiment was repeated either in the presence of ascorbic acid (10 mM) or 2,2,6,6-tetramethylpiperidine-N-oxyl (TEMPO, 3 mM).
# [2] = system: Fusarium oxysporum f. sp. vasinfectum (Fov); assay: Growth inhibition of Fov by NaD1 (microtitre OD595); type: cell-based
# Experimental: Lyophilized NaD1 (500 μg) was dissolved in 400 μL of stock buffer (200 mM Tris-HCl pH 8.0, 2 mM EDTA, 6 M guanidine-HCl, 0.02% [v/v] Tween-20). Reduction buffer (stock buffer with 15 mM dithiothreitol [DTT]) was added (44 μL) followed by a 4.5 h incubation at 40° C. The reaction mixture was cooled to RT before iodoacetic acid (0.5 M in 1 M NaOH, 55 μL) was added and the incubation continued in the dark for 30 min at RT. A Nanosep omega (Registered) spin column (3K molecular weight cut off, PALL Life Sciences) was used to remove salts, DTT and iodoacetic acid and the protein concentration was determined using the BCA protein assay (Pierce). The effect of reduced and alkylated NaD1 (NaD1R&A) on the growth of Fusarium oxysporum (Fov) was measured as described herein.
# (§1) Antifungal activity against Fusarium oxysporum f. sp. vasinfectum (Fov, Australian isolate VCG01111 isolated from cotton; from Wayne O'Neill, Farming Systems Institute, DPI, Queensland, Australia), Thielaviopsis basicola (gift from David Nehl, NSW DPI, Narrabri, Australia), Verticillium dahliae (from Helen McFadden, CSIRO Plant Industry, Black Mountain, Australia), Leptosphaeria maculans (from Barbara Howlett, University of Melbourne, Victoria, Australia) and Aspergillus nidulans (from Michael Hynes, University of Melbourne) was assessed essentially as described in Broekaert et al, 1990. Spores were isolated from sporulating cultures growing in either half-strength potato dextrose broth (PDB) (Fov and T. basicola), Czapeck-Dox Broth (V. dahliae) (Difco Laboratories) or 10% (v/v) clarified V8 medium (L. maculans and A. nidulans) by filtration through sterile muslin. Spore concentrations were determined using a hemocytometer and adjusted to 5×10^4 spores/mL in the appropriate growth medium. Spore suspensions (80 μL) were added to the wells of sterile 96-well flat-bottomed microtitre plates along with 20 μL of filter-sterilized (0.22 μm syringe filter; Millipore) NaD1, or water to give final protein concentrations of 0-10 μM. The plates were shaken briefly and placed in the dark at 25° C. without shaking until the optical density at 595 nm of the water control reached approximately 0.2 (24-72 h depending on growth rate). Hyphal growth was estimated by measuring the optical density at 595 nm using a microtitre plate reader (SpectraMax Pro M2; Molecular Devices). Each test was performed in quadruplicate.
# [3] = system: Fov; assay: Effect of metal ions on NaD1 activity against Fov; type: cell-based, Fusarium oxysporum f. sp. vasinfectum; details: NaD1 10 μM, growth of Fov
# Description: as §1
# The activity of NaD1 against Fov was examined as described with varying concentrations of CaCl2 (0.1, 0.2, 0.5, 1.0 and 2.0 μM) or MgCl2 (1.0, 2.0, 10, 20 and 50 μM) present in the medium to determine the effects of divalent cations on NaD1 activity.
substance,measurement,setting,value
NaD1: plant defensin isolated from floral tissue of Nicotiana alata (SEQ ID NO:12) (RECKTESNTFPGICITKPPCRKACISEKFTDGHCSKILRRCLCTKPC; Nicotiana alata (NaD1)),"ROS production, DHR123 fluorescence","[1]; NaD1 0.1, 2 and 10 μM or 10 μM NaD1R&A",concentration-dependent increase in fluorescence
same,DHR123 oxidation by NaD1 in the presence of ROS scavengers,[1]; ascorbic acid or TEMPO present,did not alter the level of fluorescence
same,growth retarded,"[2]; 1 μM NaD1, Fov",50%
same,growth inhibited,"[2]; 5 μM NaD1, Fov",more than 80%
same,growth inhibition of Fov by NaD1 with ROS scavenger,[2]; 10 mM ascorbic acid,nor did the presence of 10 mM ascorbic acid affect growth inhibition
same,IC50,[2]; Fusarium oxysporum f. sp. vasinfectum,1000 nM
same,growth inhibition of Fov,[2]; NaD1 0.1 μM,no growth inhibition was observed
same,growth inhibition of Fov,[2]; NaD1 concentration used for microscopy (10 μM),> 90%
same,Ca2+ more antagonistic than Mg2+,[3],greater than 20 times
same,CaCl2 concentration giving complete inactivation of NaD1,[3],< 2 mM
same,MgCl2 concentration giving complete inactivation of NaD1,[3],50 mM
